{"source": "patent EP1243581A1", "about": "“Pyridinium compounds useful for the treatment of AGE-related diseases” (Torrent Pharmaceuticals Ltd, priority 2001, dated 2002)"}
{"target": "T1, AGE-BSA (Bos taurus, UniProt P02769)", "T1 construct": "Bovine serum albumin (fraction V) (BSA); from tissue; host or cells: bovine serum (fraction V albumin)", "T1 sequence (P02769 25-607)": "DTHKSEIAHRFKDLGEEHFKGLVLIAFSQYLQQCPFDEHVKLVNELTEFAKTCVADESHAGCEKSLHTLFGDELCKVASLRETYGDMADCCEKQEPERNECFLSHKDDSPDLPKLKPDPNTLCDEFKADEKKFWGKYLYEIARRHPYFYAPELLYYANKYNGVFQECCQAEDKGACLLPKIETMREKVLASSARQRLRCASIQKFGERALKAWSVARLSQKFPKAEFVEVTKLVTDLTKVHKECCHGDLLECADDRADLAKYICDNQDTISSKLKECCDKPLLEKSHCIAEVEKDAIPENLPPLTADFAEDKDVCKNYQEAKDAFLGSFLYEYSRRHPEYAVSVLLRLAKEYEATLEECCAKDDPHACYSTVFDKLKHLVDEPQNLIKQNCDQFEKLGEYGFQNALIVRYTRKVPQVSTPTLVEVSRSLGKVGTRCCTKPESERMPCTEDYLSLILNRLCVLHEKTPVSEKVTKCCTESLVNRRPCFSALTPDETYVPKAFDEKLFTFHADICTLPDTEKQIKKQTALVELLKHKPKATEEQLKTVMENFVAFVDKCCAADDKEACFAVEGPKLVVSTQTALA", "assay": "In-vitro screening for AGE-breaking activity (ELISA on 16 weeks AGE-BSA)", "assay_type": "biochemical, bovine", "details": "Concentration 1 mM; 10µg/ml 16 weeks AGE-BSA, 37°C, 24 hours", "units": {"% breakage of AGE-BSA crosslinks at 1000 µM": "%"}, "method": "• Materials: • Bovine serum albumin (fraction V) (BSA) • Glucose, analytical grade • Phosphate buffered saline (PBS) • Equipment: • Microplate ELISA Reader - Spectramax Plus (Molecular Devices, USA) • Microplate washer, (Bio -Tec Instruments, USA) • pH meter Methods of experiment: Elisa (Enzyme Linked Immunosorbent Assay) 160 mg/ml of protein, bovine serum albumin, BSA and 1.6M glucose sugar were dissolved in phosphate buffered saline, PBS. Sodium azide was added at 0.02% concentration as a preservative. The solution was filtered asceptically through a 0.22 µM filter and kept for aging at 37°C for 16 weeks. After 16 weeks the solution was dialyzed against PBS, aliquoted and stored at - 20°C.\nTo determine the AGE breaking activity, 10µg/ml of the 16 weeks AGE-BSA was incubated with different concentrations of the test compounds at 37°C for 24 hours and AGE breaking activity of the test compounds by ELISA was determined. […] Different concentrations of 16 weeks AGE-BSA were coated on a microtitre plate as standard. Each concentration is coated in triplicates. • 2. The test samples were coated on microtitre plate at a concentration of 5 ng. to 20 ng per well in triplicates. • 3. The plate was incubated at 37°C for one hour. • 4. After incubation the plate was washed with PBST (PBS with 0.05% Tween 20). • 5. Blocking with 5% skimmed milk in PBS at 37°C for one hour was done. • 6. The plate was washed with PBST. • 7. Primary antibody against AGE-BSA was added and the plate is incubated at 37°C for one hour. • 8. The plate was washed with PBST • 9. Secondary antibody anti rabbit HRPO (Horse-Radish Per Oxidase) conjugate was added and the plate is incubated at 37°C for one hour. • 10. The plate was washed with PBST. • 11. Colour development with OPD (orthophenylenediamine dihydrochloride) and hydrogen peroxide was done. • 12. OD (optical density) at (450nm reading - 620nm reading) was measured after incubation at 37°C for 15 minutes with Microplate ELISA Reader.\nThe breaker activity of the compounds were determined by the following formula: % Breaker activity =(OD450-620 Control - OD450-620 Test)/(OD450-620 Control)x 100 [formula]"}
{"molecule": "Cc1ccc(C(=O)NNS(C)(=O)=O)c[n+]1CC(=O)c1cccs1", "note": "[Compound 39, 1-(2-thien-2'-yl-2-oxoethyl)-3-(methanesulfonyl hydrazinocarbonyl) -6-methyl pyridinium bromide]", "% breakage of AGE-BSA crosslinks at 1000 µM": 77.7}
{"molecule": "NC(=O)c1cc(C(=O)NNC(=O)c2ccc[n+](CC(=O)c3cccs3)c2)c[n+](CC(=O)c2cccs2)c1", "note": "[Compound 42, 1-[1-(2-thien-2'-yl-2-oxoethyl)-5-aminocarbonyl-3-carbonylpyridinium]-2-[1-(2-Thien-2'-yl-2-oxoethyl)-3-carbonylpyridinium] hydrazine dichloride]", "% breakage of AGE-BSA crosslinks at 1000 µM": 95.4}
{"molecule": "CS(=O)(=O)NNC(=O)c1ccc[n+](CC(=O)c2ccc([N+](=O)[O-])s2)c1", "note": "[Compound 49, 1-2-(5-nitro-thien-2-yl)-2-oxoethyl)-3-(methanesulfonyl hydrazino carbonyl) pyridinium chloride]", "% breakage of AGE-BSA crosslinks at 1000 µM": 42}
{"target": "T1, AGE-BSA", "assay": "In-vitro screening for AGE-breaking activity (ELISA on 16 weeks AGE-BSA)", "assay_type": "biochemical, bovine", "details": "Concentration 2.5 mM; 10µg/ml 16 weeks AGE-BSA, 37°C, 24 hours", "units": {"% breakage of AGE-BSA crosslinks at 2500 µM": "%"}}
{"molecule": "Cc1ccc(C(=O)NNC(=O)c2ccc[n+](CC(=O)c3cccs3)c2)c[n+]1CC(=O)c1cccs1", "note": "[Compound 31, 1-[1-(2-thien-2'-yl-2-oxoethyl)-6-methyl-3-carbonylpyridinium]-2-[1-(2-Thien-2'-yl-2-oxoethyl)-3-carbonylpyridinium] hydrazine dichloride]", "% breakage of AGE-BSA crosslinks at 2500 µM": 85.7}
{"molecule": "CS(=O)(=O)NNC(=O)c1cc(Br)c[n+](CC(=O)c2cccs2)c1", "note": "[Compound 35, 1-(2-thien-2'-yl-2-oxoethyl)-3-(methanesulfonyl hydrazinocarbonyl)-5-bromo pyridinium bromide]", "% breakage of AGE-BSA crosslinks at 2500 µM": 29.4}
{"target": "T1, AGE-BSA", "assay": "In-vitro screening for AGE-breaking activity (ELISA on 16 weeks AGE-BSA)", "assay_type": "biochemical, bovine", "details": "Concentration 10 mM; 10µg/ml 16 weeks AGE-BSA, 37°C, 24 hours", "units": {"% breakage of AGE-BSA crosslinks at 10000 µM": "%"}}
{"molecule": "COCCOC(=O)c1ccc[n+](CC(=O)c2ccc(Cl)cc2Cl)c1", "note": "[Compound 4, 1-(2-(2',4'-dichlorophenyl)-2-oxoethyl)-3-(2(methoxy)ethyloxycarbonyl) pyridinium bromide]", "% breakage of AGE-BSA crosslinks at 10000 µM": 13}
{"molecule": "O=C(C[n+]1cccc(C(=O)NCCOC(=O)c2ccccc2)c1)Nc1ccccc1", "note": "[Compound 5, 1-(2-phenylamino-2-oxoethyl)-3-((benzoyloxy)ethylaminocarbonyl) pyridinium chloride]", "% breakage of AGE-BSA crosslinks at 10000 µM": 37}
{"molecule": "O=C(NNC(=O)c1ccc[n+](CC(=O)c2ccco2)c1)c1ccc[n+](CC(=O)c2ccco2)c1", "note": "[Compound 14, N, N' - bis [3-carbonyl-1-(2-furan-2'-yl-2-oxoethyl)pyridinium] hydrazine dibromide]", "% breakage of AGE-BSA crosslinks at 10000 µM": 14}
{"molecule": "O=C(NNC(=O)c1cccnc1Cl)c1ccc[n+](CC(=O)c2cccs2)c1", "note": "[Compound 24, 1-(2-thien-2'yl-2-oxoethyl)-3-(2-(2-chloro-3-pyridoylhydrazinocarbonyl) -pyridinium chloride]", "% breakage of AGE-BSA crosslinks at 10000 µM": 12.5}
{"molecule": "CS(=O)(=O)NNC(=O)c1ccc[n+](CC(=O)c2cccs2)c1", "note": "[Compound 27, 1-(2-thien-2'-yl-2-oxoethyl)-3-(methanesulfonyl hydrazinocarbonyl) pyridinium chloride]", "% breakage of AGE-BSA crosslinks at 10000 µM": 17.5}
{"molecule": "COCCNC(=O)c1cc(Br)c[n+](CC(=O)c2cccs2)c1", "note": "[Compound 29, 1-(2-thien-2'-yl-2-oxoethyl)-3-((2-methoxyethyl)aminocarbonyl)-5-bromo pyridinium chloride]", "% breakage of AGE-BSA crosslinks at 10000 µM": 32.4}
{"molecule": "CC(C)S(=O)(=O)NNC(=O)c1ccc[n+](CC(=O)c2cccs2)c1", "note": "[Compound 32, 1-(2-thien-2'-yl-2-oxoethyl)-3-(isopropylsulfonyl hydrazinocarbonyl) pyridinium bromide]", "% breakage of AGE-BSA crosslinks at 10000 µM": 31.4}
{"molecule": "CCOC(=O)NNC(=O)c1ccc[n+](CC(=O)c2cccs2)c1", "note": "[Compound 36, 1-(2-thien-2'-yl-2-oxoethyl)-3-(ethoxycarbonyl hydrazinocarbonyl) pyridinium bromide]", "% breakage of AGE-BSA crosslinks at 10000 µM": 33.4}
{"molecule": "Cc1ccc(C(=O)C[n+]2cccc(C(=O)NNC(=O)c3ccc[n+](CC(=O)c4ccc(C)s4)c3)c2)s1", "note": "[Compound 40, N,N'-bis[3-carbonyl-1-(2-(5-methyl-thien-2-yl)-2-oxoethyl)pyridinium] hydrazine dichloride]", "% breakage of AGE-BSA crosslinks at 10000 µM": 82}
{"molecule": "CCOC(=O)C1CCCN1C(=O)C[n+]1cccc(C(=O)NNC(=O)c2ccc[n+](CC(=O)N3CCCC3C(=O)OCC)c2)c1", "note": "(stereo not drawn) [Compound 41, N,N'-bis[3-carbonyl-1-(2-(2-ethoxycarbonylpyrrolidin-1-yl)-2-oxoethyl)pyridinium] hydrazine dichloride]", "% breakage of AGE-BSA crosslinks at 10000 µM": 20.3}
{"molecule": "O=C(NNC(=O)c1ccc[n+](CC(=O)c2ccc(Cl)s2)c1)c1ccc[n+](CC(=O)c2ccc(Cl)s2)c1", "note": "[Compound 44, N,N'-bis[3-carbonyl-1-(2-(5-chloro-thien-2-yl)-2-oxoethyl)pyridinium] hydrazine dichloride]", "% breakage of AGE-BSA crosslinks at 10000 µM": 78.4}
{"molecule": "O=C(NNS(=O)(=O)C(F)(F)F)c1ccc[n+](CC(=O)c2cccs2)c1", "note": "[Compound 50, 1-(2-thien-2'-yl-2-oxoethyl)-3-(trifluoromethanesulfonyl hydrazinocarbonyl) - pyridinium bromide]", "% breakage of AGE-BSA crosslinks at 10000 µM": 92.6}
{"target": "T1, AGE-BSA", "assay": "In-vitro screening for AGE-breaking activity (ELISA on 16 weeks AGE-BSA)", "assay_type": "biochemical, bovine", "details": "Concentration 25 mM; 10µg/ml 16 weeks AGE-BSA, 37°C, 24 hours; read-out: % Breakage", "units": {"inhibition at 25000 µM": "%"}}
{"molecule": "COCCOC(=O)c1ccc[n+](CC(=O)c2ccc(Cl)cc2Cl)c1", "note": "[Compound 4, 1-(2-(2',4'-dichlorophenyl)-2-oxoethyl)-3-(2(methoxy)ethyloxycarbonyl) pyridinium bromide]", "inhibition at 25000 µM": 41}
{"molecule": "O=C(C[n+]1cccc(C(=O)NCCOC(=O)c2ccccc2)c1)Nc1ccccc1", "note": "[Compound 5, 1-(2-phenylamino-2-oxoethyl)-3-((benzoyloxy)ethylaminocarbonyl) pyridinium chloride]", "inhibition at 25000 µM": 90}
{"target": "T1, AGE-BSA", "assay": "In-vitro screening for AGE-breaking activity (ELISA on 16 weeks AGE-BSA)", "assay_type": "biochemical, bovine", "details": "read-out: % Breakage", "units": {"inhibition at 5000 µM": "%", "inhibition at 10000 µM": "%", "inhibition at 2500 µM": "%", "inhibition at 20000 µM": "%"}}
{"molecule": "COCCNC(=O)c1ccc[n+](CC(=O)c2ccc(Cl)cc2Cl)c1", "note": "[Compound 20, 1-(2',4'-dichloro-phenyl-2-oxoethyl)-3-(2-methoxyethylaminocarbonyl)-pyridinium bromide]", "inhibition at 5000 µM": 17.7}
{"molecule": "COCCNC(=O)c1ccc[n+](CC(=O)NC2CC2)c1", "note": "[Compound 22, 1-(2-cyclopropylamino-2-oxoethyl)-3-(2-methoxyethylaminocarbonyl)-pyridinium chloride]", "inhibition at 10000 µM": 12.4}
{"molecule": "CC(C)NC(=O)C[n+]1cccc(C(=O)NNS(C)(=O)=O)c1", "note": "[Compound 25, 1-(2-isopropylamino-2-oxoethyl)-3-(2-methylsulfonylhydrazinocarbonyl) -pyridinium chloride]", "inhibition at 10000 µM": 10.8}
{"molecule": "CS(=O)(=O)NNC(=O)c1ccc[n+](CC(=O)N2CCC(Cc3ccccc3)CC2)c1", "note": "[Compound 33, 1-(2-(4-benzylpiperidin-1-yl)-2-oxoethyl)-3-(methanesulfonyl hydrazinocarbonyl) pyridinium chloride]", "inhibition at 10000 µM": 20.9}
{"molecule": "CCOC(=O)C1CCCN1C(=O)C[n+]1cccc(C(=O)NNS(C)(=O)=O)c1", "note": "(stereo not drawn) [Compound 34, 1-(2-(2-ethoxycarbonylpyrrolidin-1-yl)-2-oxoethyl)-3-(methanesulfonyl hydrazinocarbonyl) pyridinium chloride]", "inhibition at 10000 µM": 25.3}
{"molecule": "CS(=O)(=O)NNC(=O)c1ccc[n+](CC(=O)c2ccc(Cl)s2)c1", "note": "[Compound 37, 1-(2-(5-chloro-thien-2-yl)-2-oxoethyl)-3-(methanesulfonyl hydrazinocarbonyl) pyridinium bromide]", "inhibition at 10000 µM": 40.9}
{"molecule": "O=C(NNC(=O)c1ccc[n+](CC(=O)c2cc([N+](=O)[O-])cs2)c1)c1ccc[n+](CC(=O)c2cc([N+](=O)[O-])cs2)c1", "note": "[Compound 38, N,N'-bis[3-carbonyl-1-(2-(4-nitro-thien-2-yl)-2-oxoethyl)pyridinium] hydrazine dichloride]", "inhibition at 10000 µM": 75.9}
{"molecule": "CCOC(=O)C1CSCN1C(=O)C[n+]1cccc(C(=O)NNS(C)(=O)=O)c1", "note": "(stereo not drawn) [Compound 43, 1-(2-(4-carbethoxy-thiazolidin-3-yl)-2oxoethyl)-3-(methanesulfonyl hydrazinocarbonyl) pyridinium chloride]", "inhibition at 10000 µM": 25.1}
{"molecule": "Cc1ccc(C(=O)C[n+]2cccc(C(=O)NNS(C)(=O)=O)c2)s1", "note": "[Compound 45, 1-(2-(5-methyl-thien-2-yl)-2-oxoethyl)-3-(methanesulfonyl hydrazinocarbonyl) pyridinium chloride]", "inhibition at 10000 µM": 25.2}
{"molecule": "CS(=O)(=O)NNC(=O)c1ccc[n+](CC(=O)c2cc([N+](=O)[O-])cs2)c1", "note": "[Compound 46, 1-(2-(4-nitro-thien-2-yl)-2-oxoethyl)-3-(methanesulfonyl hydrazinocarbonyl) pyridinium bromide]", "inhibition at 10000 µM": 60.9}
{"molecule": "O=C(C[n+]1cccc(C(=O)NNc2ccccc2)c1)Nc1ccccc1", "note": "[Compound 47, 1-(2-phenylamino-2-oxoethyl)-3-(phenyl hydrazinocarbonyl) pyridinium chloride]", "inhibition at 2500 µM": 68.3}
{"molecule": "O=C(C[n+]1ccc(C(=O)NCCOC(=O)c2ccccc2)cc1)Nc1ccccc1", "note": "[Compound 48, 1-(2-phenylamino-2-oxoethyl)-4-[2-(benzoyloxy)ethylaminocarbonyl] pyridinium chloride]", "inhibition at 10000 µM": 19.1}
{"molecule": "O=C(C[n+]1ccsc1)c1ccccc1", "note": "[PTB, N- phenacyl thiazolium bromide, reference compound]", "inhibition at 10000 µM": 27, "inhibition at 20000 µM": 47}
